EP0443498A1, “Isoindoline derivatives” (KYORIN PHARMACEUTICAL CO., LTD., priority 1990, dated 1991)
Counter-ions that a name gives are not always drawn. Like-named read-outs stand apart in the source and are kept apart here.

Columns and labels:
P. aeruginosa IID1210 = assay: Antibacterial spectra (MIC), method of the Society of Chemotherapy in Japan; assay type: cell-based; conditions: Pseudomonas aeruginosa; P. aeruginosa IID1210, Gram -, 10^6 cells/ml; read-out: Minimum inhibitory concentration for growth
S. aureus 209P = assay: as above; assay type: cell-based; conditions: Staphylococcus aureus, Gram +, 10^6 cells/ml, read-out: Minimum inhibitory concentration for growth
K. pneumoniae KY6445 = assay: as above; assay type: cell-based; conditions: Klebsiella pneumoniae; K. pneumoniae KY6445, Gram -, 10^6 cells/ml; read-out: Minimum inhibitory concentration for growth
P. vulgaris IFO3167 = assay: as above; assay type: cell-based; conditions: Proteus vulgaris; P. vulgaris IFO3167, Gram -, 10^6 cells/ml; read-out: Minimum inhibitory concentration for growth
B. thetaiotaomicron 0661 = assay: as above; assay type: cell-based; conditions: Bacteroides thetaiotaomicron; B. thetaiotaomicron 0661, Gram -, 10^6 cells/ml; read-out: Minimum inhibitory concentration for growth
P. maltophilia GIFU2491 = assay: as above; assay type: cell-based; conditions: Stenotrophomonas maltophilia; P. maltophilia GIFU2491, Gram -, 10^6 cells/ml; read-out: Minimum inhibitory concentration for growth
S. sonnei IID969 = assay: as above; assay type: cell-based; conditions: Shigella sonnei; S. sonnei IID969, Gram -, 10^6 cells/ml; read-out: Minimum inhibitory concentration for growth
Protocol: The antibacterial test was performed according to the method designated by Society of Chemotherapy in Japan.

E. coli NIHJ JC-2 = assay: as above; assay type: cell-based; conditions: Escherichia coli, NIHJJC2; E. coli NIHJ JC-2, Gram -, 10^6 cells/ml; read-out: Minimum inhibitory concentration for growth
E. cloacae IID977 = assay: as above; assay type: cell-based; conditions: Enterobacter cloacae; E. cloacae IID977, Gram -, 10^6 cells/ml; read-out: Minimum inhibitory concentration for growth
S. pyogenes S-8 = assay: as above; assay type: cell-based; conditions: Streptococcus pyogenes, S8; S. pyogenes S-8, Gram +, 10^6 cells/ml; read-out: Minimum inhibitory concentration for growth
S. aureus Smith [1] = assay: Therapeutic effect on the systemic infection of mouse; assay type: in vivo, ICR mice; conditions: Staphylococcus aureus, po, 1 h, read-out: ED50 S. aureus
Protocol: (§1) The infectious bacteria were injected intraperitoneally using five ICR mice per group. one hour later, 5 doses of drugs were administered once orally, respectively, and, from a curve of survival rate of mouse as a function of dose of drug, a dose (EDso) by which 50% of animals escape the death to heal was determined.

E. coli ML 4707 = assay: as above; assay type: in vivo, ICR mice; conditions: Escherichia coli, ML4707, po, 1 h, read-out: ED50 E. coli
Protocol: as §1

M. morganii IID602 = assay: Antibacterial spectra (MIC), method of the Society of Chemotherapy in Japan; assay type: cell-based; conditions: Morganella morganii; M. morganii IID602, Gram -, 10^6 cells/ml; read-out: Minimum inhibitory concentration for growth
P. aeruginosa IFO12689 = assay: as above; assay type: cell-based; conditions: Pseudomonas aeruginosa; P. aeruginosa IFO12689, Gram -, 10^6 cells/ml; read-out: Minimum inhibitory concentration for growth
S. pneumoniae type III = assay: as above; assay type: cell-based; conditions: Streptococcus pneumoniae, Gram +, 10^6 cells/ml, read-out: Minimum inhibitory concentration for growth
S. marcescens IID618 = assay: as above; assay type: cell-based; conditions: Serratia marcescens; S. marcescens IID618, Gram -, 10^6 cells/ml; read-out: Minimum inhibitory concentration for growth
P. mirabilis IID994 = assay: as above; assay type: cell-based; conditions: Proteus mirabilis; P. mirabilis IID994, Gram -, 10^6 cells/ml; read-out: Minimum inhibitory concentration for growth
C. freundii IID976 = assay: as above; assay type: cell-based; conditions: Citrobacter freundii; C. freundii IID976, Gram -, 10^6 cells/ml; read-out: Minimum inhibitory concentration for growth
S. epidermidis IID866 = assay: as above; assay type: cell-based; conditions: Staphylococcus epidermidis; S. epidermidis IID866, Gram +, 10^6 cells/ml; read-out: Minimum inhibitory concentration for growth
P. aeruginosa V-1 = assay: as above; assay type: cell-based; conditions: Pseudomonas aeruginosa, V1; P. aeruginosa V-1, Gram -, 10^6 cells/ml; read-out: Minimum inhibitory concentration for growth
A. anitratus IID876 = assay: as above; assay type: cell-based; conditions: Acinetobacter calcoaceticus; A. anitratus IID876, Gram -, 10^6 cells/ml; read-out: Minimum inhibitory concentration for growth
S. enteritidis IID604 = assay: as above; assay type: cell-based; conditions: Salmonella enterica; S. enteritidis IID604, Gram -, 10^6 cells/ml; read-out: Minimum inhibitory concentration for growth
S. aureus Smith [2] = assay: as above; assay type: cell-based; conditions: Staphylococcus aureus, Gram +, 10^6 cells/ml, read-out: Minimum inhibitory concentration for growth
S. pneumoniae IID552 = assay: as above; assay type: cell-based; conditions: Streptococcus pneumoniae; S. pneumoniae IID552, Gram +, 10^6 cells/ml; read-out: Minimum inhibitory concentration for growth
E. faecalis IID682 = assay: as above; assay type: cell-based; conditions: Enterococcus faecalis; E. faecalis IID682, Gram +, 10^6 cells/ml; read-out: Minimum inhibitory concentration for growth
S. pneumoniae S-4288 = assay: as above; assay type: cell-based; conditions: Streptococcus pneumoniae, S4288; S. pneumoniae S-4288, Gram +, 10^6 cells/ml; read-out: Minimum inhibitory concentration for growth
C. perfringens KYA13123 = assay: microbe, parasite or virus in culture; assay type: cell-based; conditions: Clostridium perfringens, KYA13123, read-out: Minimum inhibitory concentration for growth
[3] = S. aureus Smith, 4.8x10^6 CFU/mouse intraperitoneally, drug once orally one hour later, dose at which 50% of ICR mice survive
[4] = E. coli ML 4707, 8.8x10^6 CFU/mouse intraperitoneally, drug once orally one hour later, dose at which 50% of ICR mice survive

Row | Structure (SMILES) | MIC (P. aeruginosa IID1210) | MIC (S. aureus 209P) | MIC (K. pneumoniae KY6445) | MIC (P. vulgaris IFO3167) | MIC (B. thetaiotaomicron 0661) | MIC (S. sonnei IID969) | MIC (E. coli NIHJ JC-2) | MIC (E. cloacae IID977) | MIC (S. pyogenes S-8) | ED50 (S. aureus Smith [1]; [3]) | ED50 (E. coli ML 4707; [4]) | MIC (P. aeruginosa IFO12689) | MIC (S. pneumoniae type III) | MIC (P. mirabilis IID994) | MIC (C. freundii IID976) | MIC (S. epidermidis IID866) | MIC (P. aeruginosa V-1) | MIC (A. anitratus IID876) | MIC (S. enteritidis IID604) | MIC (S. aureus Smith [2]) | also measured
1 | COc1c(N2C[C@H](C)[C@@H](N)C2)c(F)cc2c(=O)c(C(=O)O)cn(C3CC3)c12 [Example 36, 7-[3(R)-amino-4(S)-methyl-I-pyrrolidinyl]-I-cyclopropyl-6-fluoro-1-4-dihydro-8-methoxy-4-oxo-3-quinolinecarboxylic acid hydrochloride] | 1.56 µg/mL | 0.05 µg/mL | 0.05 µg/mL | 0.025 µg/mL | 1.56 µg/mL | 0.025 µg/mL | 0.025 µg/mL | 0.2 µg/mL | 0.2 µg/mL | 6.08 mg/kg | 2.04 mg/kg | 1.56 µg/mL | 0.2 µg/mL |  |  |  |  |  |  |  | MIC (P. maltophilia GIFU2491): 0.2 µg/mL; MIC (M. morganii IID602): 0.2 µg/mL; MIC (S. marcescens IID618): 0.2 µg/mL
2 | COc1c(N2C[C@@H](C)[C@H](N)C2)c(F)cc2c(=O)c(C(=O)O)cn(C3CC3)c12 [Example 33, 7-[3(S)-amino-4(R)-methyl-l-pyrrolidinyl]-1-cyclopropyl-6-fluoro-1,4-dihydro-8-methoxy-4-oxo-3-quinolinecarboxylic acid hydrochloride] |  | 0.025 µg/mL | 0.025 µg/mL |  | 0.2 µg/mL |  |  | 0.05 µg/mL | 0.05 µg/mL | 1.21 mg/kg | 0.31 mg/kg |  | 0.05 µg/mL | 0.05 µg/mL | 0.05 µg/mL | 0.05 µg/mL | 0.2 µg/mL | 0.05 µg/mL | 0.05 µg/mL | 0.025 µg/mL | 
3 | O=C(O)c1cn(C2CC2)c2cc(N3CCNCC3)c(F)cc2c1=O [CPFX, Ciprofloxacin, reference compound] |  |  |  |  |  |  |  |  |  |  |  |  |  |  |  |  |  |  |  |  | ED50 (S. aureus Smith [1]): 20.3 mg/kg; ED50 (E. coli ML 4707): 0.49 mg/kg
4 | COc1c(N2C[C@@H](N)[C@@H](C)C2)c(F)cc2c(=O)c(C(=O)O)cn(C3CC3)c12 [Example 34, 7-[3(S)amino-4(S)-methyl-1-pyrrolidinyl]-1-cyclopropyl-6-fluoro-1,4-dihydro-8-methoxy-4-oxo-3-quinolinecarboxyic acid hydrochloride] |  | 0.025 µg/mL | 0.025 µg/mL | 0.025 µg/mL |  |  |  |  |  | 1.39 mg/kg | 0.26 mg/kg |  | 0.05 µg/mL | 0.025 µg/mL | 0.05 µg/mL | 0.05 µg/mL | 0.2 µg/mL | 0.05 µg/mL | 0.05 µg/mL | 0.025 µg/mL | MIC (S. pneumoniae IID552): 0.2 µg/mL; MIC (E. faecalis IID682): 0.2 µg/mL; MIC (S. pneumoniae S-4288): 0.2 µg/mL; MIC (C. perfringens KYA13123): 0.2 µg/mL
5 | COc1c(N2C[C@@H](C)[C@@H](N)C2)c(F)cc2c(=O)c(C(=O)O)cn(C3CC3)c12.Cl [Example 35, 7-[3(R)-amino-4(R)-methyl-1-pyrrolidinyl]-1-cyclopropyl-6-fluoro-1,4-dihydro-8-methoxy-4-oxo-3-quinolinecarboxylic acid hydrochloride] | 1.56 µg/mL | 0.025 µg/mL | 0.05 µg/mL | 0.025 µg/mL |  | 0.025 µg/mL | 0.025 µg/mL |  | 0.2 µg/mL | 2 mg/kg | 1.11 mg/kg | 1.56 µg/mL |  | 0.05 µg/mL |  | 0.05 µg/mL |  | 0.05 µg/mL |  | 0.025 µg/mL | MIC (S. pneumoniae IID552): 0.2 µg/mL; MIC (E. faecalis IID682): 0.2 µg/mL; MIC (S. pneumoniae S-4288): 0.2 µg/mL; MIC (C. perfringens KYA13123): 0.2 µg/mL
